{"source": "patent US7265119B2", "about": "“Tartrate salts of 5,8,14-triazatetracyclo[10.3.1.02,11.04.9]-hexadeca-2(11),3,5,7,9-pentaene and pharmaceutical compositions thereof” (Pfizer Inc, priority 2001, dated 2007)", "format_in_all_cases": "physicochemical", "key": {"hygroscopicity": {"test": "hygroscopicity", "description": "Further, the Form B forms orthorhombic crystals belonging to the P2(1)2(1)2(1) space group. Form B is further characterized in having an onset of melting at about 215° C. as measured by differential scanning calorimetry at a heating rate of 5 degrees per minute. […] In addition, Form B has a hygroscopicity of approximately 0.2% at 90% relative humidity."}, "[1]": {"test": "polymorph stability / interconversion on exposure to relative humidity", "settings": "for stability at RH greater than 60%: experiments at 75% and 87% relative humidity", "text": "Upon filtering off the Form C which precipitates out as a white salt, the Form C salt may be air dried.\nExperiments at 23% and 43% RH have verified this phenomena."}, "[2]": {"test": "stability of the hydrate under vacuum at moderate temperature", "settings": "for stability (in words): ambient conditions / low humidity", "text": "The L-tartrate salt exists as three possible forms: two anhydrous forms and one hydrate form."}, "[3]": {"test": "native pH in aqueous solution"}, "aqueous solubility": {"test": "aqueous solubility", "settings": "water, pH 3.3, water"}, "[4]": {"test": "solid-state stability and excipient compatibility"}}, "note": "Where a name gives a salt, the structure may show the parent alone.", "data": [{"smiles": "O=C(O)C(O)C(O)C(=O)O.c1cnc2cc3c(cc2n1)C1CNCC3C1", "note": "[Form A′, D-tartrate salt of 5,8,14-triazatetracyclo[10.3.1.0^2,11.0^4,9]-hexadeca-2(11),3,5,7,9-pentaene]", "values": [{"measurement": "hygroscopicity compared with the corresponding Form A, B or C of the L-tartrate salt", "setting": "hygroscopicity", "value": "the same"}]}, {"smiles": "c1cnc2cc3c(cc2n1)C1CNCC3C1", "note": "[Form B, L-Tartrate Salt of 5,8,14-Triazatetracyclo[10.3.1.0^2,11.0^4,9]-hexadeca-2(11),3,5,7,9-pentaene (Anhydrous Polymorph, Form B)]", "values": [{"measurement": "hygroscopicity", "setting": "hygroscopicity; at 90% relative humidity", "value": "approximately 0.2%"}, {"measurement": "stability at RH greater than 60%", "setting": "[1]", "value": "relatively stable over a several month period"}, {"measurement": "time for conversion of Form B to Form C", "setting": "[1]; exposed to 100% RH", "value": "≤ 2", "unit": "days"}, {"measurement": "stability (in words)", "setting": "[2]", "value": "most stable of the polymorphs at low humidity"}, {"measurement": "native pH in aqueous solution", "setting": "[3]", "value": "about 3.3"}, {"measurement": "solubility", "setting": "aqueous solubility", "value": "~156", "unit": "mg/mL"}]}, {"smiles": "O=C(O)C(O)C(O)C(=O)O.c1cnc2cc3c(cc2n1)C1CNCC3C1", "note": "[Form C, L-Tartrate Saft Form C of 5,8,14-Triazatetracyclo[10.3.1.0^2,11.0^4,9]-hexadeca-2(11),3,5,7,9-pentaene (Form C)]", "values": [{"measurement": "stability at RH greater than 60%", "setting": "[1]", "value": "relatively stable over a several month period"}, {"measurement": "behaviour on exposure to less than 50% RH", "setting": "[1]; less than 50% RH, experiments at 23% and 43% RH", "value": "more slowly dehydrate"}, {"measurement": "time the hydrate maintains its one equivalent of water under vacuum", "setting": "[2]; 45° C. vacuum oven", "value": "≥ 24", "unit": "h"}, {"measurement": "stability (in words)", "setting": "[2]", "value": "relatively stable under ambient conditions"}, {"measurement": "time after which the hydrate loses water and converts to anhydrous Form B", "setting": "[2]; under vacuum at moderate temperatures", "value": "≥ 48", "unit": "h"}]}, {"smiles": "c1cnc2cc3c(cc2n1)C1CNCC3C1", "note": "[L-tartrate salt, L-tartrate salt of 5,8,14-triazatetracyclo[10.3.1.0^2,11.0^4,9]-hexadeca-2(11),3,5,7,9-pentaene]", "values": [{"measurement": "hygroscopicity (in words)", "setting": "hygroscopicity", "value": "very slightly hygroscopic"}, {"measurement": "solid-state stability", "setting": "[4]", "value": "high solid-state stability"}, {"measurement": "inertness towards excipients", "setting": "[4]; common excipients", "value": "relative inertness towards common excipients"}]}]}
